Experiments:
[1] = tested on: human adrenal gland section expressing aldosterone-producing adenoma; test: In vitro autoradiography using human adrenal adenoma; format: binding
Source text: From adrenal gland excised from a human patient for treatment of primary aldosteronism, a portion containing aldosterone-producing adenoma was removed and was then frozen. The frozen adrenal gland was embedded in an embedding agent for production of a frozen tissue section (Tissue-Tek O.C.T. Compound, Sakura Finetek Japan). Using a freezing microtome (CM3050S, Leica Microsystems), a 7-μm thin slice section, which is schematically shown in FIGS. 17(a) and 17(b), was produced, and was preserved at −20° C. before use. In FIGS. 17, 71a and 71b indicate aldosterone-producing adenomas, 72a and 72b indicate normal adrenal cortexes, and 73a and 73b indicate normal adrenal medullas. A 5-33 kBq/mL solution was prepared by adding a suitable amount of each of Compounds [^18F] 100, [^18F] 200, [^123I] 400, [^18F] 500, and [^123I] 601 to [^123I] 610, which were obtained by the methods described in Examples 2, 4, 7, 9, 11, 13, 15, 17, 19, 21, 23, 25, 27, and 29, or [^123I] IMTO to a phosphate-buffered physiological saline containing 1 w/v % bovine serum albumin (not containing fatty acid). The radioactivity concentration was measured using an autowell gamma system (ARC-7001, manufactured by Hitachi Aloka Medical, Ltd.). The section was immersed in the obtained sample solution for 10 minutes. For Compounds [^18F] 100, [^18F] 200, [^123I] 400, [^18F] 500, [^123I] 601 and [^123I] 602, the section shown in FIG. 17(a) was used, and for Compounds […] [^123I] IMTO, both sections shown in FIGS. 17(a) and (b) were used. Each sample solution was washed off, and the section was then exposed to an imaging plate (BAS-SR2040, manufactured by FUJIFILM Holdings Corporation) (IP) for 16-20 hours, and thereafter, an autoradiogram was obtained using a fluoro-image analyzer (FLA-7000, manufactured by FUJIFILM Holdings Corporation).
In order to quantitatively compare differences between images caused by ^123I and ^18F nuclides, a correction was made by calculating accumulation of radioactivity within the range of a region of interest (ROI) by means of integral calculation based on half-life, added radioactivity and IP contact time.
610. FIG. 18(b), FIG. 19(b), FIG. 20(b), FIG. 21(b), FIG. 22(a), FIG. 23(a), FIG. 24(a), FIG. 25(a), FIG. 26(a), FIG. 27(a), FIG. 28(a), FIG. 29(a), FIG. 30(a), and FIG. 31(a) each show an autoradiogram of [^123I] IMTO. […] 100, [^18F] 200, [^123I] 400, [^18F] 500, and [^123I] 601 to [^123I] […] The ROI having the same area as each other was established in a normal site and in a site in which aldosterone-producing adenoma had developed. Then, the PSL value (B1) indicating accumulation of radioactivity in the sites of normal adrenal cortexes 72a and 72b was compared with the PSL value (B2) indicating accumulation of radioactivity in the sites of aldosterone-producing adenomas 71a and 71b. In Table 7, the B1, B2 and B2/B1 values of [^18F] 100 indicate the mean values for the number of tests (n), respectively.

[2] = In vivo kinetics experiment (radioactivity distribution); set-up: species or system Wistar male rat; conditions: rat; for Adrenal gland/blood ratio of radioactivity accumulation / Adrenal gland/fat ratio of radioactivity accumulation / Adrenal gland/kidney ratio of radioactivity accumulation / Adrenal gland/liver ratio of radioactivity accumulation / Adrenal gland/muscle ratio of radioactivity accumulation / Adrenal gland/small intestine ratio of radioactivity accumulation / Radioactivity distribution Adrenal gland / Radioactivity distribution Bladder (including urine) / Radioactivity distribution Blood / Radioactivity distribution Fat / Radioactivity distribution Femur / Radioactivity distribution Heart / Radioactivity distribution Kidney / Radioactivity distribution Large intestine / Radioactivity distribution Liver / Radioactivity distribution Lung / Radioactivity distribution Muscle (lower limbs) / Radioactivity distribution Remaining whole body / Radioactivity distribution Small intestine / Radioactivity distribution Spleen / Radioactivity distribution Stomach / Radioactivity distribution Testis / Radioactivity distribution Whole brain: caudal vein
Experimental: Each of Compounds [^18F] 100, [^18F] 200, [^123I] 400, [^18F] 500, and [^123I] 601 to 610 obtained by the methods described in Examples 2, 4, 7, 9, 11, 13, 15, 17, 19, 21, 23, 25, 27, and 29, or [^123I] IMTO, was diluted with a physiological saline containing 1 w/v % ascorbic acid to prepare a solution to be administered. The above described compound (approximately 1 to 3.7 MBq) was injected into the caudal vein of a Wistar male rat (9 weeks old) under anesthesia with a mixed gas of isoflurane/air, and ten minutes after the injection, the rat was sacrificed by exsanguination. From the thus sacrificed rat, blood and organs (heart, lung, stomach, liver, spleen, small intestine, large intestine, kidney, bladder (including urine), muscle (lower limbs), brain, adrenal gland, testis, fat, femur, or thyroid gland) were excised, and the weights thereof were then measured. Thereafter, radioactivity was measured in the blood, the individual excised organs, and the remaining whole body. Further, 30 and 60 minutes after the administration, the same operations as those described above were carried out. […] The symbol “n” in Tables 9 to 23 indicates the number of rats used. In addition, Tables 9 to 23 also show the ratio of radioactivity accumulation in adrenal grand (% ID/g) to radioactivity accumulation in each of blood, liver, kidney, small intestine, muscle and fat (% ID/g).

[3] = Plasma stability evaluation (TLC analysis); format: in vitro ADME; conditions: 37° C., 60 minutes
Experimental: Evaluation was made using a heparin-treated normal human plasma pool (Kohjin Bio Co., Ltd.). Compounds [^18F] 100, [^18F] 200, [^123I] 400, [^18F] 500, and [^123I] 601 to 610 obtained by the methods shown in Examples 2, 4, 7, 9, 11, 13, 15, 17, 19, 21, 23, 25, 27, and 29 were each added to the aforementioned human plasma (5 mL), and the obtained mixture was then incubated at 37° C. for 60 minutes. Thereafter, the mixture was centrifuged with addition of methanol, so that a deproteinization treatment was carried out. Thereafter, stability was evaluated by TLC analysis. As TLC analysis conditions, the TLC analysis conditions applied upon the above described synthesis of each compound were applied.

Adrenal gland/blood ratio of radioactivity accumulation ([2]; 10 min after administration): 100.87 ± 36.73
Adrenal gland/fat ratio of radioactivity accumulation ([2]; 10 min after administration): 174.42 ± 63.32
Adrenal gland/kidney ratio of radioactivity accumulation ([2]; 10 min after administration): 11.40 ± 5.81
Adrenal gland/liver ratio of radioactivity accumulation ([2]; 10 min after administration): 2.68 ± 1.01
Adrenal gland/muscle ratio of radioactivity accumulation ([2]; 10 min after administration): 88.35 ± 26.16
Adrenal gland/small intestine ratio of radioactivity accumulation ([2]; 10 min after administration): 13.32 ± 3.08
Radioactivity distribution Adrenal gland ([2]; 10 min after administration): 14.35 ± 4.09 % ID/g
Radioactivity distribution Bladder (including urine) ([2]; 10 min after administration): 1.28 ± 0.11 % ID/g
Radioactivity distribution Blood ([2]; 10 min after administration): 0.15 ± 0.01 % ID/g
Radioactivity distribution Fat ([2]; 10 min after administration): 0.08 ± 0.02 % ID/g
Radioactivity distribution Femur ([2]; 10 min after administration): 0.38 ± 0.03 % ID/g
Radioactivity distribution Heart ([2]; 10 min after administration): 0.32 ± 0.03 % ID/g
Radioactivity distribution Kidney ([2]; 10 min after administration): 1.39 ± 0.39 % ID/g
Radioactivity distribution Large intestine ([2]; 10 min after administration): 0.16 ± 0.01 % ID/g
Radioactivity distribution Liver ([2]; 10 min after administration): 5.54 ± 0.78 % ID/g
Radioactivity distribution Lung ([2]; 10 min after administration): 0.54 ± 0.07 % ID/g
Radioactivity distribution Muscle (lower limbs) ([2]; 10 min after administration): 0.16 ± 0.00 % ID/g
Radioactivity distribution Remaining whole body ([2]; 10 min after administration): 0.15 ± 0.00 % ID/g
Radioactivity distribution Small intestine ([2]; 10 min after administration): 1.07 ± 0.07 % ID/g
Radioactivity distribution Spleen ([2]; 10 min after administration): 1.49 ± 0.32 % ID/g
Radioactivity distribution Stomach ([2]; 10 min after administration): 0.36 ± 0.04 % ID/g
Radioactivity distribution Testis ([2]; 10 min after administration): 0.04 ± 0.00 % ID/g
Radioactivity distribution Whole brain ([2]; 10 min after administration): 0.02 ± 0.00 % ID/g
Adrenal gland/blood ratio of radioactivity accumulation ([2]; 30 min after administration): 145.45 ± 14.69
Adrenal gland/fat ratio of radioactivity accumulation ([2]; 30 min after administration): 425.84 ± 103.54
Adrenal gland/kidney ratio of radioactivity accumulation ([2]; 30 min after administration): 17.00 ± 1.67
Adrenal gland/liver ratio of radioactivity accumulation ([2]; 30 min after administration): 5.06 ± 0.59
Adrenal gland/muscle ratio of radioactivity accumulation ([2]; 30 min after administration): 158.65 ± 18.59
Adrenal gland/small intestine ratio of radioactivity accumulation ([2]; 30 min after administration): 8.44 ± 1.36
Radioactivity distribution Adrenal gland ([2]; 30 min after administration): 22.61 ± 2.12 % ID/g
Radioactivity distribution Bladder (including urine) ([2]; 30 min after administration): 2.82 ± 1.27 % ID/g
Radioactivity distribution Blood ([2]; 30 min after administration): 0.16 ± 0.00 % ID/g
Radioactivity distribution Fat ([2]; 30 min after administration): 0.06 ± 0.02 % ID/g
Radioactivity distribution Femur ([2]; 30 min after administration): 0.40 ± 0.10 % ID/g
Radioactivity distribution Heart ([2]; 30 min after administration): 0.33 ± 0.02 % ID/g
Radioactivity distribution Kidney ([2]; 30 min after administration): 1.33 ± 0.03 % ID/g
Radioactivity distribution Large intestine ([2]; 30 min after administration): 0.27 ± 0.04 % ID/g
Radioactivity distribution Liver ([2]; 30 min after administration): 4.48 ± 0.13 % ID/g
Radioactivity distribution Lung ([2]; 30 min after administration): 0.48 ± 0.04 % ID/g
Radioactivity distribution Muscle (lower limbs) ([2]; 30 min after administration): 0.14 ± 0.01 % ID/g
Radioactivity distribution Remaining whole body ([2]; 30 min after administration): 0.13 ± 0.02 % ID/g
Radioactivity distribution Small intestine ([2]; 30 min after administration): 2.70 ± 0.21 % ID/g
Radioactivity distribution Spleen ([2]; 30 min after administration): 1.09 ± 0.25 % ID/g
Radioactivity distribution Stomach ([2]; 30 min after administration): 0.56 ± 0.06 % ID/g
Radioactivity distribution Testis ([2]; 30 min after administration): 0.05 ± 0.04 % ID/g
Radioactivity distribution Whole brain ([2]; 30 min after administration): 0.01 ± 0.00 % ID/g
Adrenal gland/blood ratio of radioactivity accumulation ([2]; 60 min after administration): 168.33 ± 36.80
Adrenal gland/fat ratio of radioactivity accumulation ([2]; 60 min after administration): 417.70 ± 25.29
Adrenal gland/kidney ratio of radioactivity accumulation ([2]; 60 min after administration): 18.05 ± 3.00
Adrenal gland/liver ratio of radioactivity accumulation ([2]; 60 min after administration): 6.87 ± 1.26
Adrenal gland/muscle ratio of radioactivity accumulation ([2]; 60 min after administration): 180.41 ± 24.02
Adrenal gland/small intestine ratio of radioactivity accumulation ([2]; 60 min after administration): 5.43 ± 1.42
Radioactivity distribution Adrenal gland ([2]; 60 min after administration): 21.73 ± 3.25 % ID/g
Radioactivity distribution Bladder (including urine) ([2]; 60 min after administration): 5.83 ± 2.21 % ID/g
Radioactivity distribution Blood ([2]; 60 min after administration): 0.13 ± 0.01 % ID/g
Radioactivity distribution Fat ([2]; 60 min after administration): 0.05 ± 0.00 % ID/g
Radioactivity distribution Femur ([2]; 60 min after administration): 0.28 ± 0.00 % ID/g
Radioactivity distribution Heart ([2]; 60 min after administration): 0.27 ± 0.02 % ID/g
Radioactivity distribution Kidney ([2]; 60 min after administration): 1.21 ± 0.04 % ID/g
Radioactivity distribution Large intestine ([2]; 60 min after administration): 0.41 ± 0.06 % ID/g
Radioactivity distribution Liver ([2]; 60 min after administration): 3.18 ± 0.23 % ID/g
Radioactivity distribution Lung ([2]; 60 min after administration): 0.39 ± 0.09 % ID/g
Radioactivity distribution Muscle (lower limbs) ([2]; 60 min after administration): 0.12 ± 0.00 % ID/g
Radioactivity distribution Remaining whole body ([2]; 60 min after administration): 0.12 ± 0.00 % ID/g
Radioactivity distribution Small intestine ([2]; 60 min after administration): 4.13 ± 0.83 % ID/g
Radioactivity distribution Spleen ([2]; 60 min after administration): 0.68 ± 0.05 % ID/g
Radioactivity distribution Stomach ([2]; 60 min after administration): 0.65 ± 0.16 % ID/g
Radioactivity distribution Testis ([2]; 60 min after administration): 0.09 ± 0.00 % ID/g
Radioactivity distribution Whole brain ([2]; 60 min after administration): 0.01 ± 0.00 % ID/g
Radiochemical purity after incubation in human plasma ([3]; TLC analysis): 92%
SMILES: Fc1cc2nc(-c3cncc(Cn4ccnc4)c3)n(CC[18F])c2cc1Br [[^18F] 200, 6-Bromo-5-fluoro-1-(2-[^18F]fluoroethyl)-2-[5-(imidazol-1-ylmethyl)pyridin-3-yl]benzimidazole]
accumulation of radioactivity in adrenal gland section (autoradiogram) ([1]; FIGS. 18 to 31): accumulation of radioactivity was selectively observed in a region in which aldosterone-producing adenoma had been pathologically observed
B2/B1 accumulation ratio ([1]; section of FIG. 17(a)): 3.34
B2 (PSL value, aldosterone-producing adenoma) ([1]; section of FIG. 17(a), site 71a): 4409
B1 (PSL value, normal adrenal cortex) ([1]; section of FIG. 17(a), site 72a): 1321
accumulation of radioactivity in adrenal gland vs blood and peripheral tissues ([2]; Tables 9 to 22): high accumulation of radioactivity in adrenal gland was observed, in comparison to in blood and peripheral tissues
stability in human plasma [3]: hardly metabolized and decomposed in the plasma
